Results on 31 compounds are retold here after ChEMBL document CHEMBL1137272, “Discovery and synthesis of tetrahydroindolone derived semicarbazones as selective Kv1.5 blockers” (Bioorg Med Chem Lett, 2006).

Molecules are shown by their SMILES. The source made the active and inactive calls. No cut-off for these calls is given here.

The target in assay [1] is T1, Potassium voltage-gated channel subfamily A member 5 (Homo sapiens, UniProt P22460). Nature of the assay: Inhibition of Kv1.5 expressed in LTK- cells by whole cell patch clamp assay at 1uM. It counts as functional, cell-based. For orientation: In patch-clamp work, channel activity is measured electrically.
T1 sequence (P22460 whole entry): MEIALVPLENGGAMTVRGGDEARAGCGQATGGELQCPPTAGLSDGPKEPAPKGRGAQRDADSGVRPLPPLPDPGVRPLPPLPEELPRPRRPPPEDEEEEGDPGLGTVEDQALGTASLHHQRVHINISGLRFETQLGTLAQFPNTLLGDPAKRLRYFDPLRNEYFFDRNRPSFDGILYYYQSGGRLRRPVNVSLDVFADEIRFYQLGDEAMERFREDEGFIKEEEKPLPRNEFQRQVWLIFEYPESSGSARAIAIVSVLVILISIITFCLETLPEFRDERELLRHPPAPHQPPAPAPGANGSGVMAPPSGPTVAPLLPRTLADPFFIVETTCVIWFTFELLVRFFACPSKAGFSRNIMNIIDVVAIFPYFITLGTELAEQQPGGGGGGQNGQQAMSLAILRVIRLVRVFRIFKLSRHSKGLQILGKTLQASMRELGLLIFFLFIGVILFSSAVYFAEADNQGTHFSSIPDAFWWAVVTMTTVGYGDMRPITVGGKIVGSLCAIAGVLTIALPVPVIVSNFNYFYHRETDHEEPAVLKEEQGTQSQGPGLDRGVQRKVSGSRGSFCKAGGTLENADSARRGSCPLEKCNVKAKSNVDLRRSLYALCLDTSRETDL
The target of assay [2] is Voltage-gated L-type calcium channel (Homo sapiens, UniProt Q13936+Q13698+Q01668+O60840). Nature of the assay: Inhibition of L-type calcium channel by FLIPR assay. The assay is classed as functional.
The test system of assay [3] is Sus scrofa. In words: Prolonged right atrial refractory period in pigs after 15 minute iv infusion at 10mg/kg. It counts as functional, Cardiac atrium.
Assay [4] deals with Sus scrofa. Nature of the assay: Prolonged ventricular refractory period in pigs after 15 minute iv infusion at 10mg/kg. The settings on record: Cardiac ventricle. The assay is classed as functional, organism-based.
Assay [5] addresses T1, Potassium voltage-gated channel subfamily A member 5. In words: Inhibition of Kv1.5 expressed in LTK- cells by whole cell patch clamp assay. It counts as functional, cell-based.
For assay [6], the system named is Sus scrofa. Nature of the assay: Prolonged ventricular refractory period in pigs after 15 minute iv infusion at 30mg/kg. The assay is classed as functional, organism-based. The settings on record: Cardiac ventricle.
Assay [7] concerns Sus scrofa. Nature of the assay: Prolonged right atrial refractory period in pigs after 15 minute iv infusion at 30mg/kg. The assay is classed as functional, Cardiac atrium.

With `CCc1[nH]c2c(c1CC)/C(=N/NC(=O)Nc1ccc(SC)cc1)CCC2`, the inhibition (in general, the relative decrease from the control value, in per cent) in assay [1] was determined as 56%.

As for `CCc1c(C)[nH]c2c1/C(=N/NC(=O)Nc1ccc(C)cc1)CCC2`, in assay [1], the inhibition worked out at 50%.

As to `CCc1c(C)[nH]c2c1/C(=N/NC(=S)Nc1ccc(Cl)cc1)CCC2`, the inhibition in assay [1] came to 71%.

The compound `CCc1c(C)[nH]c2c1/C(=N/N(C)C(=O)Nc1ccc(SC)cc1)CCC2` registered an inhibition in assay [1] of 78%.

`O=C(N/N=C1\CCCC2=C1C1CCCCC1N2)Nc1ccccc1` (stereo not given) registered an inhibition in assay [1] of 20%.

In assay [1], `CCc1c(C)[nH]c2c1/C(=N/NC(=S)Nc1ccc(C(F)(F)F)cc1)CCC2` came in with an inhibition of 52%.

`CCc1c(C)[nH]c2c1/C(=N/N(C)C(=O)Nc1cccc(Cl)c1)CCC2` returned an inhibition in assay [1] of 89%.

As for `Cc1[nH]c2c(c1C)/C(=N/NC(=O)Nc1ccccc1)CCC2`, the inhibition in assay [1] was found to be 37%.

Consider `CCc1c(C)[nH]c2c1/C(=N/NC(=O)Nc1ccccc1)CCC2`, for which the IC50 (usually the concentration that gives 50% inhibition) in assay [2] was above 30000 nM; in assay [5], 130 nM. The same compound registered an inhibition in assay [1] of 85%. In addition, the “Prolonged ARP” value in assay [3] amounted to 28%. Also, the “Prolonged VRP” value in assay [4] is “inactive”.

As to `CCc1c(C)[nH]c2c1/C(=N/NC(=O)Nc1ccc(SC)cc1)CCC2`, in assay [1], the inhibition came out at 80%. Also, 280 nM corresponded to half-maximal inhibition in assay [5] (IC50).

In assay [1], `CCc1[nH]c2c(c1CC)/C(=N/NC(=O)Nc1ccc(Cl)cc1)CCC2` gave an inhibition of 60%.

As to `CCc1c(C)[nH]c2c1/C(=N/N(C)C(=O)Nc1ccccc1)CCC2`, the inhibition in assay [1] was determined as 65%.

Turning to `O=C(N/N=C1\CCCc2[nH]ccc21)Nc1ccc(Cl)cc1`, the inhibition in assay [1] turned out to be 28%. Also, the half-maximal inhibitory concentration (IC50) in assay [5] came to 5600 nM.

Take `CCc1c(C)[nH]c2c1/C(=N/N(C)C(=O)Nc1ccc(C(C)=O)cc1)CCC2`: the inhibition in assay [1] is 86%.

On to `O=C(N/N=C1\CCCc2[nH]ccc21)Nc1ccccc1`, for which the inhibition entry in assay [1] was “inactive”.

Consider `CCc1c2c(n(C)c1CC)CCC/C2=N\N(C)C(=O)Nc1ccccc1`, for which the inhibition in assay [1] stood at 84%.

On to `CCc1c(C)[nH]c2c1/C(=N/NC(=O)Nc1cccc(C3CCCN3)c1)CCC2` (stereo not given), for which, in assay [1], the inhibition is 60%. The compound also had an IC50 in assay [5] of 750 nM.

In the case of `Cc1[nH]c2c(c1C(C)C)/C(=N/NC(=O)Nc1ccccc1)CCC2`, the inhibition entry in assay [1] was “inactive”.

Consider `CCc1c(C)[nH]c2c1/C(=N/NC(=O)Nc1ccc(Cl)cc1)CCC2`, for which the inhibition in assay [1] amounted to 65%. In addition, inhibition in assay [5] was half-maximal at 440 nM (IC50).

In assay [1], `CCc1c(C)[nH]c2c1/C(=N/NC(=S)Nc1cccc(C)c1)CCC2` registered an inhibition of 64%.

Regarding `CCc1c(C)[nH]c2c1/C(=N/N(C)C(=O)Nc1ccc(Cl)cc1)CCC2`, the inhibition in assay [1] turned out to be 93%. In addition, inhibition in assay [5] was half-maximal at 130 nM (IC50). Also, the “Prolonged VRP” value in assay [6] was “inactive”. Besides, the “Prolonged ARP” value in assay [7] turned out to be 18%.

For `CCc1c2c(n(C)c1CC)CCC/C2=N\N(C)C(=O)Nc1ccc(C(C)=O)cc1`, the inhibition in assay [1] came out at 90%. This compound also returned an IC50 in assay [5] of 370 nM.

Consider `Cc1[nH]c2c(c1C)/C(=N/NC(=O)Nc1ccc(Cl)cc1)CCC2`, for which the inhibition in assay [1] is 67%. Moreover, the 50% inhibitory concentration (IC50) in assay [5] worked out at 370 nM.

In turn, `CCc1c(C)[nH]c2c1/C(=N/NC(=S)Nc1cccc(C(F)(F)F)c1)CCC2` yielded an inhibition in assay [1] of 91%. Further, in assay [5], the half-maximal inhibitory concentration (IC50) turned out to be 200 nM.

For `CCc1[nH]c2c(c1CC)/C(=N/NC(=O)Nc1ccc(OC)cc1)CCC2`, the inhibition in assay [1] was determined as 85%.

Regarding `CCc1c2c(n(C)c1CC)CCC/C2=N\N(C)C(=O)Nc1ccc(Cl)cc1`, the inhibition in assay [1] worked out at 90%.

`Cc1[nH]c2c(c1C)/C(=N/NC(=O)Nc1ccc(C(F)(F)F)cc1)CCC2` showed an inhibition in assay [1] of 63%.

`CCc1[nH]c2c(c1CC)/C(=N/NC(=O)Nc1ccccc1)CCC2`: in assay [1], the inhibition came out at 56%.

For the compound `CCc1c(C)[nH]c2c1/C(=N/NC(=S)Nc1cccc(Cl)c1)CCC2`, in assay [1], the inhibition was 78%.

Turning to `CCc1[nH]c2c(c1CC)/C(=N/NC(=O)Nc1cccc(SC)c1)CCC2`, in assay [1], the inhibition was determined as 67%.

Consider `Cc1[nH]c2c(c1C(C)C)/C(=N/NC(=O)Nc1ccc(Cl)cc1)CCC2`, for which the inhibition entry in assay [1] was “inactive”.
